Active and inactive are the calls of the source.
Experiments:
Cytochrome P450 3A4 = Cytochrome P450 3A4 (Homo sapiens, UniProt P08684); conditions: Potency;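 note: confirmatory qHTS run detecting inhibitors and substrates of CYP3A4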
Cytochrome P450 2C9 = Cytochrome P450 2C9 (Homo sapiens, UniProt P11712); conditions: Potency
[1] = target: T1, Delta-type opioid receptor (Homo sapiens, UniProt P41143); assay: HTS Image-Based Screen for Antagonists of the DOR Receptor. [Related pubchem assays (depositor defined):AID1777, AID1785, AID1786, AID2133]; format: functional
[2] = luciferase reporter signal suppression in cells – H4 neuroglioma cells, luminescence, dose response (AID 1990); format: functional, cell-based
Mu-type opioid receptor = Mu-type opioid receptor (Homo sapiens, UniProt P35372); assay: HTS Image-Based Screen for Agonists of the MOR Receptor. [Related pubchem assays (depositor defined):AID1777, AID1785, AID1786, AID2133]; format: functional;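 note: imaging of beta-arrestin GFP recruitment into spots after receptor activation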
[3] = target: Peroxisome proliferator-activated receptor gamma/Nuclear receptor coactivator 1 (Homo sapiens, UniProt P37231); assay: TR-FRET dose response biochemical High Throughput Screening assay for agonists of the steroid receptor coactivator 1 (SRC-1) recruitment by the peroxisome proliferator-activated receptor gamma (PPAR gamma): non-selective agonists. [Related pubchem assays (depositor defined):AID1300, AID1808, AID504735, AID631]; format: protein assay
[4] = target: T1, Delta-type opioid receptor; assay: HTS Image-Based Screen for Agonists of the DOR Receptor. [Related pubchem assays (depositor defined):AID1777, AID1786, AID2133]; format: functional
[5] = Luminescence Cell-Based Dose Response HTS to Identify Inhibitors of 5'UTR Stem-Loop Driven Prion Protein mRNA Translation in H4 Neuroglioblastoma Cells. [Related pubchem assays: 1827 (Project Summary), 1813 (Primary HTS)]; format: functional
[6] = target: Peroxisome proliferator-activated receptor gamma/Nuclear receptor coactivator 3 (Homo sapiens, UniProt P37231); assay: TR-FRET dose response biochemical High Throughput Screening assay for agonists of the steroid receptor coactivator 3 (SRC-3) recruitment by the peroxisome proliferator-activated receptor gamma (PPAR gamma): non-selective agonists. [Related pubchem assays: 1301 (Confirmation screen.), 1048 (Primary screen.)]; format: functional
[7] = alpha-synuclein stem-loop luciferase translation blockers – H4 neuroglioma cells, luminescence, confirmation (AID 1988); format: functional, cell-based
[8] = target: G-protein coupled receptor 55 (Homo sapiens, UniProt Q9Y2T6); assay: inhibition of LPI-stimulated GPR55 beta-arrestin translocation – imaging, U2OS, beta-arrestin-GFP, LPI agonist, primary screen (AID 2013); format: functional;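 note: antagonist potency measured as reduced agonist-driven arrestin aggregation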
[9] = microbe, parasite or virus in culture; format: functional; conditions: Mycobacterium tuberculosis
[10] = target: T2, Kappa-type opioid receptor (Homo sapiens, UniProt P41145); format: functional
[11] = target: Peroxisome proliferator-activated receptor gamma/Nuclear receptor coactivator 2 (Homo sapiens, UniProt P37231); assay: TR-FRET dose response biochemical High Throughput Screening assay for agonists of the steroid receptor coactivator 2 (SRC-2) recruitment by the peroxisome proliferator-activated receptor gamma (PPAR gamma): non-selective agonists. [Related pubchem assays: 1297, 1032 ]; format: functional
Beta-galactosidase = Beta-galactosidase (Escherichia coli, UniProt Q8VNN2); format: functional
[12] = target: Sphingosine 1-phosphate receptor 4 (Homo sapiens, UniProt O95977); assay: Fluorescence dose response cell-based high throughput screening assay for antagonists of the Sphingosine 1-Phosphate Receptor 4 (S1P4). [Related pubchem assays: 1524 (Confirmation in triplicates.), 1510 (Primary screen.)]; format: functional
[13] = target: T2, Kappa-type opioid receptor; format: functional; remark: listed apart in the source
[14] = target: Sphingosine 1-phosphate receptor 1 (Homo sapiens, UniProt P21453); format: functional;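 note: Tango beta-arrestin reporter U2OS cells stimulated with S1P near its EC80; inhibitor potency meaning antagonism of receptor activation by the natural agonist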
[15] = target: T3, Replicative DNA helicase DnaB (Mycobacterium tuberculosis, UniProt P9WMR3); assay: DnaB intein splicing inhibitors, dose response, biochemical, cell-free fluorescence (AID 449749); format: functional
T3 sequence (P9WMR3 whole entry): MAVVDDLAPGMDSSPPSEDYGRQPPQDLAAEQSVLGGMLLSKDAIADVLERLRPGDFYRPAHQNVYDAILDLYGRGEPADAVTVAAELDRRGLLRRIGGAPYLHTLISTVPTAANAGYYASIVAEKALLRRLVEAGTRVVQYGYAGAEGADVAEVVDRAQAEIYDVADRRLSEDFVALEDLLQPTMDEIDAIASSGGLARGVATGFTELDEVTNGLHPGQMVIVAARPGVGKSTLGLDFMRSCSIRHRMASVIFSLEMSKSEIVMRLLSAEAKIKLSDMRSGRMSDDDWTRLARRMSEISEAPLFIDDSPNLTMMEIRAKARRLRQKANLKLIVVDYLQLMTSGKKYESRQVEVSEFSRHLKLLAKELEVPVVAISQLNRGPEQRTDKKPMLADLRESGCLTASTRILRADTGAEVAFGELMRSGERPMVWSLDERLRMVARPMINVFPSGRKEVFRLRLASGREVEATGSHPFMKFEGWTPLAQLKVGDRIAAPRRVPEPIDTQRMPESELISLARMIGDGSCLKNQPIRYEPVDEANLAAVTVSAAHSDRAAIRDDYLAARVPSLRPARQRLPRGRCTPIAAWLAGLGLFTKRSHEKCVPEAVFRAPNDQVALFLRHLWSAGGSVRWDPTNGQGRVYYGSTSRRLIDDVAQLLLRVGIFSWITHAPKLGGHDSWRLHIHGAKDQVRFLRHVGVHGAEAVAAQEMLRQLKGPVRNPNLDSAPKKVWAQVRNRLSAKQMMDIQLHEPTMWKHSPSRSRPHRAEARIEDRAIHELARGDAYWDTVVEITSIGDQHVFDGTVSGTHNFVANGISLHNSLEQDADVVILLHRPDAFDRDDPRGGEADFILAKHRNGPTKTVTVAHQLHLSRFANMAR

Protein RecA = target: T4, Protein RecA (Mycobacterium tuberculosis, UniProt P9WHJ3); assay: Fluorescence Cell-Free Homogeneous Dose Retest to Identify Inhibitors of RecA-Intein Splicing Activity. [Related pubchem assays (depositor defined):AID2097, AID2223, AID489010, AID492950]; format: functional
T4 sequence (P9WHJ3 whole entry): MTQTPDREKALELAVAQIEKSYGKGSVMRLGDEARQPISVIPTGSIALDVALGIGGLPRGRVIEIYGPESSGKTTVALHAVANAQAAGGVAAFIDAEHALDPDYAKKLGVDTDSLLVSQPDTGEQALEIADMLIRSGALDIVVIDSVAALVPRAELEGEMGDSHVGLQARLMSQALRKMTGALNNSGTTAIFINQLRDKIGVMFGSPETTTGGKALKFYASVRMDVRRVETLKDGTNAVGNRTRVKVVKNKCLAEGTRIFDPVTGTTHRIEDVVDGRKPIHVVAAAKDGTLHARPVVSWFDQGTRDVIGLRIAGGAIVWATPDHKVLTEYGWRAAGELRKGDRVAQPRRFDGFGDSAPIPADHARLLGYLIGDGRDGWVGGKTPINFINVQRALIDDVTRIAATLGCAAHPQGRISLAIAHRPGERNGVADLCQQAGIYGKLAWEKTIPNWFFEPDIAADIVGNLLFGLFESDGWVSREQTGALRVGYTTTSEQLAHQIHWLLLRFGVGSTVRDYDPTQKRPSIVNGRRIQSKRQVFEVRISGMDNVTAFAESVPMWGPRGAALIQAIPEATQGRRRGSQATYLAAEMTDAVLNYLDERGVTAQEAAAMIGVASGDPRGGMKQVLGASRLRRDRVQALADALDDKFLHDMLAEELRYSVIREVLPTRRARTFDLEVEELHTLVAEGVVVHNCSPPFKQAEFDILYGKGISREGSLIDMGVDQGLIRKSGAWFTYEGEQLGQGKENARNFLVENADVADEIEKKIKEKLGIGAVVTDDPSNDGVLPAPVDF

INS1 = assay: INS-1E survival protection against cytokine death – cell-based, luminescence, retest, dose response (AID 449756); format: functional; conditions: Rattus norvegicus;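 note: cell death triggered by IL-1 beta plus TNF-alpha plus IFN-gamma mixture; protective hits raise ATP signal compared with cytokine alone wells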
[16] = viability loss in Vero cells – cytotoxicity control for Vif-APOBEC3G degradation inhibitor project, dose response (AID 1117358); format: functional; conditions: Vero
[17] = luciferase reporter signal reduction – luminescence, H4-C neuroglioblastoma cells, dose response (AID 2458); format: functional, cell-based;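 note: H4 neuroglioblastoma cells stably carrying a luciferase reporter gene fusion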
cells = format: functional, cell-based
[18] = Trypanosoma cruzi growth suppression in host cells – NIH3T3 host cells, beta-gal luminescence, confirmation (AID 2044); format: functional, cell-based;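 note: intracellular parasites grown in NIH/3T3 mouse fibroblasts as host cells; luminescent beta-galactosidase reporter signal from transgenic T. cruzi replicating inside host cells; inhibitors lower the luminescence signal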
[19] = NIH3T3 cell viability loss – ATP luminescence, mouse fibroblasts, counter-screen, dose response (AID 2010); format: functional, cell-based;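 note: cells exposed to compound for about 90 hours before reading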
[20] = alpha-synuclein stem-loop translation blockers – luminescence, H4 neuroglioblastoma cells, dose confirmation, confirmation (AID 2454); format: functional, cell-based;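 note: H4 neuroglioblastoma cells carrying an alpha-synuclein 5'UTR luciferase reporter; potency for inhibition of the luciferase signal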
Paired box protein Pax-8 = Paired box protein Pax-8 (Homo sapiens, UniProt Q06710); assay: PAX8 transcriptional activity inhibition in RMG-I – RMG-I cells, luciferase, cherry-pick, dose response (AID 687027); format: functional, cell-based;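 note: luciferase reporter driven by Pax8 target thyroperoxidase promoter measured by SteadyGlo luminescence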
HEK293 = assay: Fluorescence-based counterscreen for potentiators or agonists of NPY-Y2: cell-based high-throughput dose response assay to identify inhibitors of cyclic nucleotide gated ion channel (CNGC) activity. In this assay, the parental HEK293 cell line transfected with a cyclic-nucleotide gated ion channel (CNGC)-based cAMP sensor is used to measure inhibition of isoproterenol-induced CNGC activity by test compound.; format: functional; conditions: Homo sapiens;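 note: stimulus is 1 µM isoproterenol at EC100 plus PDE inhibitor Ro 20-1724 at 25 µM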
[21] = target: Neuropeptide Y receptor type 2 (Homo sapiens, UniProt P49146); assay: Fluorescence-based cell-based high-throughput dose response assay for agonists of NPY-Y2. [Related pubchem assays: 1703 (Screening assay (CNGC inhibitors).), 1359 (Screening assay (NPY-Y2 potentiators or agonists).), 1304 (Screening assay (NPY-Y1 potentiators or agonists).), 1710 (Screening assay (NPY-Y2 agonists).), 1791 (Summary AID.)]; format: functional
[22] = target: Neuropeptide Y receptor type 1 (Homo sapiens, UniProt P25929); assay: Fluorescence-based counterscreen for agonists of NPY-Y2: cell-based high-throughput dose response assay for agonists of NPY-Y1.; format: functional
[23] = target: Eukaryotic translation initiation factor 4E (Mus musculus, UniProt P63073); assay: blockers of eIF4G binding by eIF4E – biochemical, TR-FRET, dose response (AID 855); format: functional;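 note: potency for disrupting eIF4E binding to eIF4GI seen as loss of FRET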
[24] = blockers of HIV-1 envelope-mediated cell-cell fusion – cherry-pick, dose response (AID 652057); format: functional, cell-based
[25] = off-target signal loss in HeLa-CEM21 co-culture – HeLa F-luc CTL cells, cherry-picked, counter-screen for HIV-1 Env fusion inhibitor project, dose response (AID 652040); format: functional, cell-based;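 note: potency for signal decrease marking cytotoxic or nonspecific inhibition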
[26] = HIV-1 AD8 envelope cell-cell fusion blockers – cherry-pick, dose response (AID 652062); format: functional, cell-based;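 note: luciferase signal from cell-cell fusion driven by HIV-1 clade B AD8 Env; potency is for inhibitors of fusion seen as a drop in luminescence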
[27] = target: T5, Alkaline phosphatase, tissue-nonspecific isozyme (Homo sapiens, UniProt P05186)
T5 sequence (P05186 whole entry): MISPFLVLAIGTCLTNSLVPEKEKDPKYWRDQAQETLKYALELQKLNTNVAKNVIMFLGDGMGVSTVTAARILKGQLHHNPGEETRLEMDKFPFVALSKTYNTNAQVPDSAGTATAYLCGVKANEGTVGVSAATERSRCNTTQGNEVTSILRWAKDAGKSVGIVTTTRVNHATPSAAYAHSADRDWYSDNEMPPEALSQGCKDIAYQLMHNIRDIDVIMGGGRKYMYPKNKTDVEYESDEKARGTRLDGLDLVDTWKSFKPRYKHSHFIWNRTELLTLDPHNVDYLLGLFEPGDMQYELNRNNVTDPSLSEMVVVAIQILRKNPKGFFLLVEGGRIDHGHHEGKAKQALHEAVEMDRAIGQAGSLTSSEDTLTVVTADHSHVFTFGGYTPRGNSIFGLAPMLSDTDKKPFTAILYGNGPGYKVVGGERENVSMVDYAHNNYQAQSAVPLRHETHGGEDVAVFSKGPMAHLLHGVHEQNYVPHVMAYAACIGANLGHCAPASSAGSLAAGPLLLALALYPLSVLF

T1 sequence (P41143 whole entry): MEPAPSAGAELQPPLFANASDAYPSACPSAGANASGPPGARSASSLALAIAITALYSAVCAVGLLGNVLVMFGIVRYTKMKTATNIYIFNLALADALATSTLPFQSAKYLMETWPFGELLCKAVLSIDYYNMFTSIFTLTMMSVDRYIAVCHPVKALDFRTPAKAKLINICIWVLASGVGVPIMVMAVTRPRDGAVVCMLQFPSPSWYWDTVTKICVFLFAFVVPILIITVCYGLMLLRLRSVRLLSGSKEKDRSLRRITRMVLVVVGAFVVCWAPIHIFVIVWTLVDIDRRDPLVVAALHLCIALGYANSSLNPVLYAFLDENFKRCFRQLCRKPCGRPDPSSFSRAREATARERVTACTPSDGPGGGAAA
T2 sequence (P41145 whole entry): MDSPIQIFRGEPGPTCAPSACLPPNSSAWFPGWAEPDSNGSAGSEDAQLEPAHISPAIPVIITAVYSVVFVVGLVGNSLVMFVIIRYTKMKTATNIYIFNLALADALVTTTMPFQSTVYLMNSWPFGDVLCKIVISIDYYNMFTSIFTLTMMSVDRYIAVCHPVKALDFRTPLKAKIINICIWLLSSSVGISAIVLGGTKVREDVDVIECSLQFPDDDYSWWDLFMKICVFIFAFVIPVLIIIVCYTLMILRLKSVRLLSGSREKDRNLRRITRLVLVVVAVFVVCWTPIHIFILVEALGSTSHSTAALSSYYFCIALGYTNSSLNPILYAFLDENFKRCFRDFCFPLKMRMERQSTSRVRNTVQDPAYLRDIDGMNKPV
Sequence of Neuropeptide Y receptor type 1 (P25929 whole entry): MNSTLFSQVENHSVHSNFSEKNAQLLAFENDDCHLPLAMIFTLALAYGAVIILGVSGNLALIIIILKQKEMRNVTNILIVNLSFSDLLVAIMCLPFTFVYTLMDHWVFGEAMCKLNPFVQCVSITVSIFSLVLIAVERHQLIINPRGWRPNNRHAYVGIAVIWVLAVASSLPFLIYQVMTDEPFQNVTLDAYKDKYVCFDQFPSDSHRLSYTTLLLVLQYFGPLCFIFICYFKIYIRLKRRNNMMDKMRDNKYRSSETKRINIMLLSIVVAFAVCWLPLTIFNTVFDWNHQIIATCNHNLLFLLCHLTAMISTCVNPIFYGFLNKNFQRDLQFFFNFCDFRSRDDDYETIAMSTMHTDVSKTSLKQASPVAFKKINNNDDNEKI
Sequence of Sphingosine 1-phosphate receptor 4 (O95977 whole entry): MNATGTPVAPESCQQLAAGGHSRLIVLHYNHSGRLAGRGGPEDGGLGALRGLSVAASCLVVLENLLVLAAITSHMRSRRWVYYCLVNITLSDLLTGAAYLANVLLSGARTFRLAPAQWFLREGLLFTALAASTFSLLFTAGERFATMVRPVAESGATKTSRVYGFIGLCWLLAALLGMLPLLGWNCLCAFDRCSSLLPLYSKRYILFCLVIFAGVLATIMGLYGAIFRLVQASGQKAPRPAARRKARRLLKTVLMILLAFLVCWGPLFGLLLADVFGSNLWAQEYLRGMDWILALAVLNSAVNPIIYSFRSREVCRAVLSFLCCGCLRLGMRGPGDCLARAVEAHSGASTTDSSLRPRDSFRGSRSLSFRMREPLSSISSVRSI
Sequence of Sphingosine 1-phosphate receptor 1 (P21453 whole entry): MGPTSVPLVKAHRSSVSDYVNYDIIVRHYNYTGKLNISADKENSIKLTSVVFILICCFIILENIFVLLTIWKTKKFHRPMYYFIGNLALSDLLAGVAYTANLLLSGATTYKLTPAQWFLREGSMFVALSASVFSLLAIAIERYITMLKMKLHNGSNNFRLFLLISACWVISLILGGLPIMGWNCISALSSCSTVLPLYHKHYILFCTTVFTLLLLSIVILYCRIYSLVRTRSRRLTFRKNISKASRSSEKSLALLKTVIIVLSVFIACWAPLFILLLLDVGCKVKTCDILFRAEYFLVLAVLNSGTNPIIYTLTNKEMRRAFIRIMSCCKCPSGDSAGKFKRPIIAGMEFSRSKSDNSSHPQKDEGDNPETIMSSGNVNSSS
Sequence of Peroxisome proliferator-activated receptor gamma/Nuclear receptor coactivator 1 (P37231 whole entry): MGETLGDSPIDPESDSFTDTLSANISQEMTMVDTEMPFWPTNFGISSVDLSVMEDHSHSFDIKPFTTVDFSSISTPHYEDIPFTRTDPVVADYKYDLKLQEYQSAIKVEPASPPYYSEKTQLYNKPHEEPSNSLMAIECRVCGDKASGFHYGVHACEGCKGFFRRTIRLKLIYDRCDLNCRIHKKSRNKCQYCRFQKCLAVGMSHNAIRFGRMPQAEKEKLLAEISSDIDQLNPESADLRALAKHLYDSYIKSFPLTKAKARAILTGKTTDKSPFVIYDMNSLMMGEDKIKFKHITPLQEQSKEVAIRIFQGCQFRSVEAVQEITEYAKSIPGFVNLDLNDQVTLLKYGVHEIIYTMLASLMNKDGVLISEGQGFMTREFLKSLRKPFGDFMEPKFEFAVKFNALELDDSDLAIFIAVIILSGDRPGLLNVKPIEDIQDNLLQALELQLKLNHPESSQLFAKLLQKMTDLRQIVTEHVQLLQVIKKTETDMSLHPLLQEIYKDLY
Sequence of Peroxisome proliferator-activated receptor gamma/Nuclear receptor coactivator 1 (Q15788 whole entry, further chain): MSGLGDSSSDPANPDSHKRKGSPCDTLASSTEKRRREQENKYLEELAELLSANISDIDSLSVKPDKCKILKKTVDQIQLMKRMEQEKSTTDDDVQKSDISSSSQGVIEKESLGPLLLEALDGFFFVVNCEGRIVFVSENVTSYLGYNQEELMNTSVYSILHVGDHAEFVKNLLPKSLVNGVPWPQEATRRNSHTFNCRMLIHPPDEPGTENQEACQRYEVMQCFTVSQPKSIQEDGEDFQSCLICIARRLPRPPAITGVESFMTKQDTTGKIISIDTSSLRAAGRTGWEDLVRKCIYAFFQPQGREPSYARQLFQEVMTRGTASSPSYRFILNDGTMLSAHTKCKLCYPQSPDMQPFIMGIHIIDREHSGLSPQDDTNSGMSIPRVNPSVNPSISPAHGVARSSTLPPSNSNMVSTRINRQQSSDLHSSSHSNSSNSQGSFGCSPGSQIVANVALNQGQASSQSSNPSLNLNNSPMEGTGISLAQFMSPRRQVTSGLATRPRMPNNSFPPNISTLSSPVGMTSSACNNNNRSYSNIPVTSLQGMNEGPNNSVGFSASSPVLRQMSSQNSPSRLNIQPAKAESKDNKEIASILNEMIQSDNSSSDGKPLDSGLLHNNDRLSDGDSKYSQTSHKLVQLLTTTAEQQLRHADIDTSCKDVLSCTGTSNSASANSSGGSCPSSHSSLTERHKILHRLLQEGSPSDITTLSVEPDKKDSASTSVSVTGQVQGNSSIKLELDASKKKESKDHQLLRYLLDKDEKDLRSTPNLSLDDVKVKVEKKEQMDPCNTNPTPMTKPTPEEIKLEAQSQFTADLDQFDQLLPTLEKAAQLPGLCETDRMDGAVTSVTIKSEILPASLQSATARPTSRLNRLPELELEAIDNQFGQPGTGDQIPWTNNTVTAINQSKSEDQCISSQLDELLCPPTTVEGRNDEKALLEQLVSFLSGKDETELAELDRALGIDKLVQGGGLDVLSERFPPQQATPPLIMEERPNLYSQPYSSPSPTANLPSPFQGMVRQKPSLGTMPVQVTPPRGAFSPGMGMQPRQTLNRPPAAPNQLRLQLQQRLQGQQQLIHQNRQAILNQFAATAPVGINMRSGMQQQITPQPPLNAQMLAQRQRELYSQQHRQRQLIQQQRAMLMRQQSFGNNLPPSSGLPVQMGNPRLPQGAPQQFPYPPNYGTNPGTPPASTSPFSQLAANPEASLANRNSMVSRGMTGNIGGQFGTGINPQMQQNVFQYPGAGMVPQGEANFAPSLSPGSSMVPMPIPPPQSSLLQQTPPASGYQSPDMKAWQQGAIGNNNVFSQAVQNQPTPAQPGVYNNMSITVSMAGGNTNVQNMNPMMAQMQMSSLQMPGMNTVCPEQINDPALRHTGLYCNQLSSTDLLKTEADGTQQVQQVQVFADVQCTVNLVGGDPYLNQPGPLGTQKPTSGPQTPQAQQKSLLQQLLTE
Sequence of Neuropeptide Y receptor type 2 (P49146 whole entry): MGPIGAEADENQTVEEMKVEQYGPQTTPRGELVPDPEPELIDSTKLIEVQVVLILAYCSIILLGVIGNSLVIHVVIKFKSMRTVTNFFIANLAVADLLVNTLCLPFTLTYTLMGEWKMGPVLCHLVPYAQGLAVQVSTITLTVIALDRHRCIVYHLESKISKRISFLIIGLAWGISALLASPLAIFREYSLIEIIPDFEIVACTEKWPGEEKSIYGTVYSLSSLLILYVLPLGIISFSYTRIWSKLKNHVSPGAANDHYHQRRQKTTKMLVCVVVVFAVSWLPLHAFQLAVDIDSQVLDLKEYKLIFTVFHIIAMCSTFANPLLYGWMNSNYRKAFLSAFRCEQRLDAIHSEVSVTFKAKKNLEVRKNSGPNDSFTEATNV
Sequence of Eukaryotic translation initiation factor 4E (P63073 whole entry, the tested form may be a part): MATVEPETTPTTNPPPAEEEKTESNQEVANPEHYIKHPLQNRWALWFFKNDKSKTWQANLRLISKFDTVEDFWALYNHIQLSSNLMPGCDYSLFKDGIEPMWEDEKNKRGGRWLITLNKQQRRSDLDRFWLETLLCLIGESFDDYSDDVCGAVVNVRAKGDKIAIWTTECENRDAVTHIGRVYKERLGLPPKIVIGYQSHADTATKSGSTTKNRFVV
Sequence of Mu-type opioid receptor (P35372 whole entry): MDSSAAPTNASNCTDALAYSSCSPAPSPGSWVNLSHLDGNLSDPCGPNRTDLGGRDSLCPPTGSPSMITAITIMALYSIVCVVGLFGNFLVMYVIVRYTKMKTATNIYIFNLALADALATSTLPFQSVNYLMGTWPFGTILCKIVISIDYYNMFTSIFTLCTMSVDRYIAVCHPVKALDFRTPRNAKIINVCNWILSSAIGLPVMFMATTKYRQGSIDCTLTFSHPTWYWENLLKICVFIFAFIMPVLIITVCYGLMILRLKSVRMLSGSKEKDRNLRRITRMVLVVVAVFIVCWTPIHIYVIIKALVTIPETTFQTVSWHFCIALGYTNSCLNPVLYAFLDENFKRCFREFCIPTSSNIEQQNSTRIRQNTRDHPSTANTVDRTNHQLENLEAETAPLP

CCCCCCCC#Cc1ccccc1C(NC(=O)OC)C(C(=O)OC)C(=O)OC (stereo not given)
AC50 (Cytochrome P450 3A4): 3.16 µM (inconclusive)
AC50 (Cytochrome P450 2C9): 7.94 µM (inconclusive)

O=C(OCn1ncc(Br)c(Br)c1=O)c1ccc(F)cc1
IC50 [1]: 10.3 µM (inactive)
EC50 [2]: > 120 µM (not active)
EC50 (Mu-type opioid receptor): > 32 µM (inactive)
EC50 [3]: > 79.4 µM (inactive)
EC50 [4]: > 32 µM (inactive)
EC50 [5]: 5.79 µM (active)
EC50 [6]: > 79.4 µM (not active)
EC50 [7]: > 120 µM (not active)
IC50 [8]: 5.05 µM (active)
CC50 [9]: 9.1 µM (active)
IC50 [10]: 18.8 µM (active)
EC50 [11]: 72.3 µM (not active)
EC50 (Beta-galactosidase): > 31.5 µM (inactive)
IC50 [12]: 1.66 µM (active)
IC50 [13]: 6.83 µM
IC50 [14]: 13.6 µM (not active)
AC50 [15]: 2.02 µM (active)
EC50 (Protein RecA): 473 nM (active)
AC50 (INS1): 4.94 µM (active)
CC50 [16]: 8.69 µM (active)

CC(=O)OC(C)(C)/C=C/C(=O)C(C)(O)C1[C@H](O)C[C@@]2(C)C3CC=C4C(CC[C@@H](O)C4(C)C)[C@]3(CO)C(=O)C[C@]12C (stereo not given in full)
EC50 [2]: < 0.1 µM (active)
EC50 [17]: 83 nM (active)
EC50 (cells): 80 nM (active)
EC50 [5]: < 0.1 µM (active)
EC50 [7]: < 0.1 µM (active)
EC50 [18]: 330 nM (active)
EC50 [19]: 8.65 µM (active)
EC50 [20]: 82 nM (active)
AC50 (Paired box protein Pax-8): < 260 nM (active)

N#C/C(=N\Nc1ccc(Cl)cc1)C(=O)c1ccccc1
EC50 (HEK293): 7.25 µM (active)
EC50 [21]: 9.92 µM (active)
EC50 [22]: 9.38 µM (active)
IC50 [23]: > 64 µM (inactive)
AC50 (INS1): 3.07 µM (active)
AC50 [24]: 39.2 µM (active)
AC50 [25]: 42 µM (active)
AC50 [26]: 24.5 µM (active)

CCOC1Cc2ccccc2N(C(N)=O)c2ccccc21 (stereo not given)
EC50 [27]: > 100 µM (not active)
